Source: patent US11780823B2, “Indazole-3-carboxamides and their use as Wnt/β-catenin signaling pathway inhibitors” (BioSplice Therapeutics, Inc., priority 2011, dated 2023)

System: Wnt activity (wnt-responsive SP5 promoter luciferase reporter in SW480 cells)
Assay: Wnt reporter screening assay: SP5 promoter-driven firefly luciferase in SW480 cells
Assay type: cell-based
Conditions: Homo sapiens; SW480 colon cancer cells with SP5 promoter luciferase reporter; half-log dilutions, ten micromolar top concentration; read 24-40 h after compound addition; normalized to DMSO; read-out: Wnt inhibition
Text: Another screening assay for Wnt activity is described as follows. Reporter cell lines can be generated by stably transducing cells of cancer cell lines (e.g., colon cancer) with a lentiviral construct that include a wnt-responsive promoter driving expression of the firefly luciferase gene.
Lentiviral constructs can be made in which the SP5 promoter, a promoter having eight TCF/LEF binding sites derived from the SP5 promoter, is linked upstream of the firefly luciferase gene. The lentiviral constructs can also include a hygromycin resistance gene as a selectable marker. The SP5 promoter construct can be used to transduce SW480 cells, a colon cancer cell line having a mutated APC gene that generates a truncated APC protein, leading to de-regulated accumulation of β-catenin.
Cultured SW480 cells bearing a reporter construct can be distributed at approximately 10,000 cells per well into 96 well or 384 well plates. Compounds from a small molecule compound library can then be added to the wells in half-log dilutions using a ten micromolar top concentration. A series of control wells for each cell type receive only buffer and compound solvent. Twenty-four to forty hours after the addition of compound, reporter activity for luciferase can be assayed, for example, by addition of the BrightGlo luminescence reagent (Promega) and the Victor3 plate reader (Perkin Elmer). Readings can be normalized to DMSO only treated cells, and normalized activities can then be used in the IC50 calculations.

| SMILES | IC50 [nM] |
| --- | --- |
| N#Cc1ccc(NC(=O)c2n[nH]c3ccc(-c4cncc(CN5CCCC5)c4)cc23)cn1 [Compound 52, N-(6-Cyanopyridin-3-yl)-5-(5-(pyrrolidin-1-ylmethyl)pyridin-3-yl)-1H-indazole-3-carboxamide] | 57 |
| O=C(Nc1ccc(N2CCCC2)nc1)c1n[nH]c2ccc(-c3cccnc3)cc12 [Compound 53, 5-(Pyridin-3-yl)-N-(6-(pyrrolidin-1-yl)pyridin-3-yl)-1H-indazole-3-carboxamide] | 63 |
| COc1ccc(-c2ccc3[nH]nc(C(=O)Nc4cccnc4)c3c2)cn1 [Compound 54, 5-(6-Methoxypyridin-3-yl)-N-(pyridin-3-yl)-1H-indazole-3-carboxamide] | 158 |
| O=C(Nc1cccnc1)c1n[nH]c2ccc(-c3cncc(Cc4ccccc4)c3)cc12 [Compound 55, 5-(5-Benzylpyridin-3-yl)-N-(pyridin-3-yl)-1H-indazole-3-carboxamide] | 44 |
| O=C(Nc1cccnc1)c1n[nH]c2ccc(-c3cncc(Oc4ccccc4)c3)cc12 [Compound 56, 5-(5-Phenoxypyridin-3-yl)-N-(pyridin-3-yl)-1H-indazole-3-carboxamide] | 160 |
| O=C(Nc1cnccc1C(F)(F)F)c1n[nH]c2ccc(-c3cncc(CN4CCCC4)c3)cc12 [Compound 57, 5-(5-(Pyrrolidin-1-ylmethyl)pyridin-3-yl)-N-(4-(trifluoromethyl)pyridin-3-yl)-1H-indazole-3-carboxamide] | ≥ 10000 |
| O=C(Nc1cnccc1NC(=O)C1CC1)c1n[nH]c2ccc(-c3cccnc3)cc12 [Compound 58, N-(4-(Cyclopropanecarboxamido)pyridin-3-yl)-5-(pyridin-3-yl)-1H-indazole-3-carboxamide] | 71 |
| O=C(NC1CCCCC1)c1cncc(-c2ccc3[nH]nc(C(=O)Nc4cccnc4)c3c2)c1 [Compound 59, 5-(5-(Cyclohexylcarbamoyl)pyridin-3-yl)-N-(pyridin-3-yl)-1H-indazole-3-carboxamide] | 3100 |
| CN1CCN(Cc2cc(F)cc(-c3ccc4[nH]nc(C(=O)Nc5cnccc5C(F)(F)F)c4c3)c2)CC1 [Compound 60, 5-(3-Fluoro-5-((4-methylpiperazin-1-yl)methyl)phenyl)-N-(4-(trifluoromethyl)pyridin-3-yl)-1H-indazole-3-carboxamide] | ≥ 10000 |
| CN1CCN(Cc2cncc(-c3ccc4[nH]nc(C(=O)Nc5cccnc5)c4c3)c2)CC1 [Compound 61, 5-(5-((4-Methylpiperazin-1-yl)methyl)pyridin-3-yl)-N-(pyridin-3-yl)-1H-indazole-3-carboxamide] | 239 |
| N#Cc1ccc(NC(=O)c2n[nH]c3ccc(-c4cncc(CN5CCCCC5)c4)cc23)cn1 [Compound 62, N-(6-cyanopyridin-3-yl)-5-(5-(piperidin-1-ylmethyl)pyridin-3-yl)-1H-indazole-3-carboxamide] | 16 |
| O=C(Nc1ccc(C(F)(F)F)nc1)c1n[nH]c2ccc(-c3cncc(CN4CCCCC4)c3)cc12 [Compound 63, 5-(5-(Piperidin-1-ylmethyl)pyridin-3-yl)-N-(6-(trifluoromethyl)pyridin-3-yl)-1H-indazole-3-carboxamide] | 100 |
| O=C(Nc1cccnc1)c1n[nH]c2ccc(-c3cncc(CN4CCOCC4)c3)cc12 [Compound 64, 5-(5-(Morpholinomethyl)pyridin-3-yl)-N-(pyridin-3-yl)-1H-indazole-3-carboxamide] | 6 |
| O=C(Nc1ccc(-c2ccccc2)nc1)c1n[nH]c2ccc(-c3cncc(CN4CCCCC4)c3)cc12 [Compound 65, N-(6-Phenylpyridin-3-yl)-5-(5-(piperidin-1-ylmethyl)pyridin-3-yl)-1H-indazole-3-carboxamide] | 101 |
| N#Cc1cncc(-c2ccc3[nH]nc(C(=O)Nc4cccnc4)c3c2)c1 [Compound 66, 5-(5-Cyanopyridin-3-yl)-N-(pyridin-3-yl)-1H-indazole-3-carboxamide] | ≥ 10000 |
| O=C(Nc1cccnc1)c1n[nH]c2ccc(-c3cc(F)cc(CN4CCCCC4)c3)cc12 [Compound 67, 5-(3-Fluoro-5-(piperidin-1-ylmethyl)phenyl)-N-(pyridin-3-yl)-1H-indazole-3-carboxamide] | ≥ 10000 |
| O=C(Nc1ccc(C(F)(F)F)nc1)c1n[nH]c2ccc(-c3cncc(CN4CCOCC4)c3)cc12 [Compound 68, 5-(5-(Morpholinomethyl)pyridin-3-yl)-N-(6-(trifluoromethyl)pyridin-3-yl)-1H-indazole-3-carboxamide] | 48 |
| O=C(Nc1ccc(N2CCOCC2)nc1)c1n[nH]c2ccc(-c3cncc(CN4CCCCC4)c3)cc12 [Compound 69, N-(6-Morpholinopyridin-3-yl)-5-(5-(piperidin-1-ylmethyl)pyridin-3-yl)-1H-indazole-3-carboxamide] | 50 |
| CN1CCN(c2ccc(NC(=O)c3n[nH]c4ccc(-c5cncc(CN6CCCCC6)c5)cc34)cn2)CC1 [Compound 70, N-(6-(4-Methylpiperazin-1-yl)pyridin-3-yl)-5-(5-(piperidin-1-ylmethyl)pyridin-3-yl)-1H-indazole-3-carboxamide] | 41 |
| O=C(Nc1ccc(N2CCCC2)nc1)c1n[nH]c2ccc(-c3cncc(CN4CCCCC4)c3)cc12 [Compound 71, 5-(5-(Piperidin-1-ylmethyl)pyridin-3-yl)-N-(6-(pyrrolidin-1-yl)pyridin-3-yl)-1H-indazole-3-carboxamide] | 25 |
| O=C(Nc1ccc(-c2cccc(F)c2)nc1)c1n[nH]c2ccc(-c3cncc(CN4CCCCC4)c3)cc12 [Compound 72, N-(6-(3-Fluorophenyl)pyridin-3-yl)-5-(5-(piperidin-1-ylmethyl)pyridin-3-yl)-1H-indazole-3-carboxamide] | 215 |
| O=C(Nc1ccc(-c2ccc(F)cc2)nc1)c1n[nH]c2ccc(-c3cncc(CN4CCCCC4)c3)cc12 [Compound 73, N-(6-(4-Fluorophenyl)pyridin-3-yl)-5-(5-(piperidin-1-ylmethyl)pyridin-3-yl)-1H-indazole-3-carboxamide] | 322 |
| CN(C)CCN(C)c1ccc(NC(=O)c2n[nH]c3ccc(-c4cncc(CN5CCCCC5)c4)cc23)cn1 [Compound 74, N-(6-((2-(Dimethylamino)ethyl)(methyl)amino)pyridin-3-yl)-5-(5-(piperidin-1-ylmethyl)pyridin-3-yl)-1H-indazole-3-carboxamide] | 65 |
| O=C(Nc1ccnnc1)c1n[nH]c2ccc(-c3cncc(CN4CCCCC4)c3)cc12 [Compound 75, 5-(5-(Piperidin-1-ylmethyl)pyridin-3-yl)-N-(pyridazin-4-yl)-1H-indazole-3-carboxamide] | 40 |
| O=C(NCc1cccnc1)c1n[nH]c2ccc(-c3cncc(CN4CCCCC4)c3)cc12 [Compound 76, 5-(5-(Piperidin-1-ylmethyl)pyridin-3-yl)-N-(pyridin-3-ylmethyl)-1H-indazole-3-carboxamide] | 850 |
| O=C(NC1CCCCC1)c1n[nH]c2ccc(-c3cncc(CN4CCCCC4)c3)cc12 [Compound 77, N-Cyclohexyl-5-(5-(piperidin-1-ylmethyl)pyridin-3-yl)-1H-indazole-3-carboxamide] | 2650 |
| O=C(Nc1ccc2c(c1)OCO2)c1n[nH]c2ccc(-c3cncc(CN4CCCCC4)c3)cc12 [Compound 78, N-(Benzo[d][1,3]dioxol-5-yl)-5-(5-(piperidin-1-ylmethyl)pyridin-3-yl)-1H-indazole-3-carboxamide] | 239 |
